Measured values as given in patent publication US12077503B2, “Substituted cyclic amides and their use as herbicides” (FMC CORPORATION, priority 2015, dated 2024).

Assays:
Assay type in all cases: in vivo
[1] = test system: Galium (catchweed bedstraw, Galium aparine); assay: Test A postemergence; settings: for Galium plant response rating: 125 g ai/ha, postemergence, visual injury rating on 0 to 100 scale (0 no effect, 100 complete control), approx. 10 d; for Plant response rating, Galium: Postemergence, 500 g ai/ha, 0 to 100 scale where 0 is no effect and 100 is complete control
In short: (§1)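 Each rating is a visual injury score from 0 to 100 given about 10 d after treatment, judged against untreated controls kept alongside in the greenhouse. In loam soil–sand blend, seeds got a preemergence directed soil spray, while postemergence plants were 2 to 10 cm tall at spraying.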

[2] = test system: ragweed (common ragweed, Ambrosia elatior); assay: Test A postemergence; settings: for Ragweed plant response rating: 125 g ai/ha, postemergence, visual injury rating on 0 to 100 scale (0 no effect, 100 complete control), approx. 10 d; for Plant response rating, Ragweed: Postemergence, 500 g ai/ha, 0 to 100 scale where 0 is no effect and 100 is complete control
In short: as §1

[3] = test system: wheat (Triticum aestivum); assay: Test A postemergence; settings: for Wheat plant response rating: 125 g ai/ha, postemergence, visual injury rating on 0 to 100 scale (0 no effect, 100 complete control), approx. 10 d; for Plant response rating, Wheat: Postemergence, 500 g ai/ha, 0 to 100 scale where 0 is no effect and 100 is complete control
In short: as §1

[4] = test system: ryegrass, Italian (Italian ryegrass, Lolium multiflorum); assay: Test A postemergence; settings: for Ryegrass, Italian plant response rating: 125 g ai/ha, postemergence, visual injury rating on 0 to 100 scale (0 no effect, 100 complete control), approx. 10 d; for Plant response rating, Ryegrass, Italian: Postemergence, 500 g ai/ha, 0 to 100 scale where 0 is no effect and 100 is complete control
In short: as §1

corn (Zea mays) = assay: Test A postemergence; settings: for Corn plant response rating: 125 g ai/ha, postemergence, visual injury rating on 0 to 100 scale (0 no effect, 100 complete control), approx. 10 d; for Plant response rating, Corn: Postemergence, 500 g ai/ha, 0 to 100 scale where 0 is no effect and 100 is complete control
In short: as §1

[5] = test system: blackgrass (Alopecurus myosuroides); assay: Test A postemergence; settings: for Blackgrass plant response rating: 125 g ai/ha, postemergence, visual injury rating on 0 to 100 scale (0 no effect, 100 complete control), approx. 10 d; for Plant response rating, Blackgrass: Postemergence, 500 g ai/ha, 0 to 100 scale where 0 is no effect and 100 is complete control
In short: as §1

[6] = test system: giant foxtail (Setaria faberii); assay: Test A postemergence; settings: for Foxtail, Giant plant response rating: 125 g ai/ha, postemergence, visual injury rating on 0 to 100 scale (0 no effect, 100 complete control), approx. 10 d; for Plant response rating, Foxtail, Giant: Postemergence, 500 g ai/ha, 0 to 100 scale where 0 is no effect and 100 is complete control
In short: as §1

Kochia (Kochia scoparia) [7] = assay: Test A postemergence; settings: for Kochia plant response rating: 125 g ai/ha, postemergence, visual injury rating on 0 to 100 scale (0 no effect, 100 complete control), approx. 10 d; for Plant response rating, Kochia: Postemergence, 500 g ai/ha, 0 to 100 scale where 0 is no effect and 100 is complete control
In short: as §1

[8] = test system: barnyardgrass (Echinochloa crus-galli); assay: Test A postemergence; settings: for Barnyardgrass plant response rating: 125 g ai/ha, postemergence, visual injury rating on 0 to 100 scale (0 no effect, 100 complete control), approx. 10 d; for Plant response rating, Barnyardgrass: Postemergence, 500 g ai/ha, 0 to 100 scale where 0 is no effect and 100 is complete control
In short: as §1

[9] = test system: pigweed (Amaranthus retroflexus); assay: Test A postemergence; settings: for Pigweed plant response rating: 125 g ai/ha, postemergence, visual injury rating on 0 to 100 scale (0 no effect, 100 complete control), approx. 10 d; for Plant response rating, Pigweed: Postemergence, 500 g ai/ha, 0 to 100 scale where 0 is no effect and 100 is complete control
In short: as §1

rice (Oryra sativa) = assay: Test B flooded paddy test; settings: Flood, 250 g ai/ha; 0 to 100 scale where 0 is no effect and 100 is complete control; 13 to 15 d
In short: (§2)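 Rating scale 0–100 (visual, vs untreated controls) after a 13–15 d greenhouse period; application to the flood layer, 3 cm above soil and maintained; plants at 2-leaf stage when treated.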

[10] = test system: ducksalad (Heteranthera limosa); assay: Test B flooded paddy test; settings: Flood, 250 g ai/ha; 0 to 100 scale where 0 is no effect and 100 is complete control; 13 to 15 d
In short: as §2

[11] = test system: sedge, umbrella (small-flower umbrella sedge, Cyperus difformis); assay: Test B flooded paddy test; settings: Flood, 250 g ai/ha; 0 to 100 scale where 0 is no effect and 100 is complete control; 13 to 15 d
In short: as §2

[12] = test system: barnyardgrass (Echinochloa crus-galli); assay: Test B flooded paddy test; settings: Flood, 250 g ai/ha; 0 to 100 scale where 0 is no effect and 100 is complete control; 13 to 15 d
In short: as §2

[13] = test system: ragweed (common ragweed, Ambrosia elatior); assay: Test A preemergence; settings: Preemergence; for Plant response rating, Ragweed: 125 g ai/ha, visual injury after approximately 10 d, 0 to 100 scale where 0 is no effect and 100 is complete control; for Ragweed plant response rating (0 to 100 scale, 0 is no effect, 100 is complete control): 500 g ai/ha, visual injury approx. 10 d
In short: as §1

[14] = test system: ryegrass, Italian (Italian ryegrass, Lolium multiflorum); assay: Test A preemergence; settings: Preemergence; for Plant response rating, Ryegrass, Italian: 125 g ai/ha, visual injury after approximately 10 d, 0 to 100 scale where 0 is no effect and 100 is complete control; for Ryegrass, Italian plant response rating (0 to 100 scale, 0 is no effect, 100 is complete control): 500 g ai/ha, visual injury approx. 10 d
In short: as §1

[15] = test system: giant foxtail (Setaria faberii); assay: Test A preemergence; settings: Preemergence; for Plant response rating, Foxtail, Giant: 125 g ai/ha, visual injury after approximately 10 d, 0 to 100 scale where 0 is no effect and 100 is complete control; for Foxtail, Giant plant response rating (0 to 100 scale, 0 is no effect, 100 is complete control): 500 g ai/ha, visual injury approx. 10 d
In short: as §1

Kochia (Kochia scoparia) [16] = assay: Test A preemergence; settings: Preemergence; for Plant response rating, Kochia: 125 g ai/ha, visual injury after approximately 10 d, 0 to 100 scale where 0 is no effect and 100 is complete control; for Kochia plant response rating (0 to 100 scale, 0 is no effect, 100 is complete control): 500 g ai/ha, visual injury approx. 10 d
In short: as §1

[17] = test system: barnyardgrass (Echinochloa crus-galli); assay: Test A preemergence; settings: Preemergence; for Plant response rating, Barnyardgrass: 125 g ai/ha, visual injury after approximately 10 d, 0 to 100 scale where 0 is no effect and 100 is complete control; for Barnyardgrass plant response rating (0 to 100 scale, 0 is no effect, 100 is complete control): 500 g ai/ha, visual injury approx. 10 d
In short: as §1

[18] = test system: pigweed (Amaranthus retroflexus); assay: Test A preemergence; settings: Preemergence; for Plant response rating, Pigweed: 125 g ai/ha, visual injury after approximately 10 d, 0 to 100 scale where 0 is no effect and 100 is complete control; for Pigweed plant response rating (0 to 100 scale, 0 is no effect, 100 is complete control): 500 g ai/ha, visual injury approx. 10 d

## O=C1NCC(c2cccc(F)c2F)C1C(=O)Nc1ccccc1F (stereo not drawn) [Compound 494]
[1]
  Galium plant response rating: 0
  Plant response rating, Galium: 0
[2]
  Ragweed plant response rating: 0
  Plant response rating, Ragweed: 0
[3]
  Wheat plant response rating: 0
  Plant response rating, Wheat: 0
[4]
  Ryegrass, Italian plant response rating: 0
  Plant response rating, Ryegrass, Italian: 0
Corn (Zea mays)
  Corn plant response rating: 0
  Plant response rating, Corn: 0
[5]
  Blackgrass plant response rating: 0
  Plant response rating, Blackgrass: 0
[6]
  Foxtail, Giant plant response rating: 20
  Plant response rating, Foxtail, Giant: 60
Kochia (Kochia scoparia) [7]
  Kochia plant response rating: 0
  Plant response rating, Kochia: 0
[8]
  Barnyardgrass plant response rating: 30
  Plant response rating, Barnyardgrass: 80
[9]
  Pigweed plant response rating: 0
  Plant response rating, Pigweed: 0
Rice (Oryra sativa)
  Plant response rating, Rice: 0
[10]
  Plant response rating, Ducksalad: 30
[11]
  Plant response rating, Sedge, Umbrella: 0
[12]
  Plant response rating, Barnyardgrass: 20
[13]
  Plant response rating, Ragweed: 0
  Ragweed plant response rating (0 to 100 scale, 0 is no effect, 100 is complete control): 0
[14]
  Plant response rating, Ryegrass, Italian: 0
  Ryegrass, Italian plant response rating (0 to 100 scale, 0 is no effect, 100 is complete control): 0
[15]
  Plant response rating, Foxtail, Giant: 80
  Foxtail, Giant plant response rating (0 to 100 scale, 0 is no effect, 100 is complete control): 90
Kochia (Kochia scoparia) [16]
  Plant response rating, Kochia: 0
  Kochia plant response rating (0 to 100 scale, 0 is no effect, 100 is complete control): 0
[17]
  Plant response rating, Barnyardgrass: 70
  Barnyardgrass plant response rating (0 to 100 scale, 0 is no effect, 100 is complete control): 90
[18]
  Plant response rating, Pigweed: 0
  Pigweed plant response rating (0 to 100 scale, 0 is no effect, 100 is complete control): 0

## COCc1cccc(C2CNC(=O)C2C(=O)Nc2ccc(F)cc2F)c1 (stereo not drawn) [Compound 499]
[1]
  Galium plant response rating: 0
  Plant response rating, Galium: 40
[2]
  Ragweed plant response rating: 0
  Plant response rating, Ragweed: 0
[3]
  Wheat plant response rating: 0
  Plant response rating, Wheat: 0
[4]
  Ryegrass, Italian plant response rating: 0
  Plant response rating, Ryegrass, Italian: 0
Corn (Zea mays)
  Corn plant response rating: 0
  Plant response rating, Corn: 0
[5]
  Blackgrass plant response rating: 0
  Plant response rating, Blackgrass: 0
[6]
  Foxtail, Giant plant response rating: 20
  Plant response rating, Foxtail, Giant: 30
Kochia (Kochia scoparia) [7]
  Kochia plant response rating: 0
  Plant response rating, Kochia: 0
[8]
  Barnyardgrass plant response rating: 30
  Plant response rating, Barnyardgrass: 80
[9]
  Pigweed plant response rating: 0
  Plant response rating, Pigweed: 0
Rice (Oryra sativa)
  Plant response rating, Rice: 15
[10]
  Plant response rating, Ducksalad: 80
[11]
  Plant response rating, Sedge, Umbrella: 0
[12]
  Plant response rating, Barnyardgrass: 50
[13]
  Plant response rating, Ragweed: 0
  Ragweed plant response rating (0 to 100 scale, 0 is no effect, 100 is complete control): 0
[14]
  Plant response rating, Ryegrass, Italian: 0
  Ryegrass, Italian plant response rating (0 to 100 scale, 0 is no effect, 100 is complete control): 0
[15]
  Plant response rating, Foxtail, Giant: 30
  Foxtail, Giant plant response rating (0 to 100 scale, 0 is no effect, 100 is complete control): 90
Kochia (Kochia scoparia) [16]
  Plant response rating, Kochia: 0
  Kochia plant response rating (0 to 100 scale, 0 is no effect, 100 is complete control): 30
[17]
  Plant response rating, Barnyardgrass: 30
  Barnyardgrass plant response rating (0 to 100 scale, 0 is no effect, 100 is complete control): 90
[18]
  Plant response rating, Pigweed: 0
  Pigweed plant response rating (0 to 100 scale, 0 is no effect, 100 is complete control): 0
